Data taken from ChEMBL document CHEMBL1130428, “Design, synthesis, and cocrystal structure of a nonpeptide Src SH2 domain ligand” (J Med Chem, 1997).

Target: Tyrosine-protein kinase transforming protein Src (Rous sarcoma virus)
Assay: Inhibition of [125I]phosphopeptide binding to Src SH2 domain.

| SMILES | IC50 [µM] |
| --- | --- |
| CN(CCCC1CCCCC1)C(=O)[C@H](CCC(=O)O)NC(=O)NCc1ccc(OP(=O)(O)O)cc1 | 12 |
| CC[C@H](C)[C@H](NC(=O)[C@H](CCC(=O)O)NC(=O)[C@H](CCC(=O)O)NC(=O)[C@@H](CC(=O)O)Cc1ccc(OP(=O)(O)O)cc1)C(=O)N[C@@H](CCC(=O)O)C(=O)O | 0.4 |
